In PubChem BioAssay AID1259408 (Genetic Toxicology Data Bank (GENE-TOX), 2018):
The source made the active and inactive calls. The rule behind the calls is not given here.

System: GENE-TOX genotoxicity assays, various organisms and cells
Assay: GENE-TOX mutagenicity studies
Conditions: for call: Assay Type: In vivo carcinogenicity studies
[1] = Species/Cell Type: Nonhuman, Assay Code: CCG+, Evaluation Type: Evaluation A (Pre-1980)
[2] = Species/Cell Type: Salmonella typhimurium (one or more of the five standard strains: TA98, TA100, TA1535, TA1537, and TA1538), Assay Type: Histidine reverse gene mutation, Ames assay, Assay Code: SAL+, Evaluation Type: Evaluation A (Pre-1980)

## c1ccc2c(c1)ccc1c3ccccc3ccc21
Species/Cell Type: Escherichia coli polA (W3110 vs P3478), Assay Type: Rec-assay, DNA effects (bacterial DNA repair), Assay Code: RE2-, Evaluation Type: Evaluation A (Pre-1980)
  mutagenic call: inactive; negative
Species/Cell Type: Escherichia coli polA (W3119 vs P3478), Assay Type: Rec-assay, DNA effects (bacterial DNA repair), Assay Code: RE1T, Evaluation Type: Evaluation A (Pre-1980)
  mutagenic call: no conclusion
Species/Cell Type: Mammalian germ cells, Sex: Male, Assay Type: Chromosome aberrations in vivo, Assay Code: CY9-, Evaluation Type: Evaluation A (Pre-1980)
  mutagenic call: inactive; negative
Species/Cell Type: Mouse prostate cells, Assay Type: Cell transformation, Assay Code: CTM-, Evaluation Type: Evaluation A (Pre-1980)
  mutagenic call: inactive; negative
Species/Cell Type: Nonhuman, Assay Code: CCG+L, Evaluation Type: Evaluation A (Pre-1980)
  call: active; positive
Species/Cell Type: Nonhuman, Assay Type: Sister-chromatid exchange (SCE) in vivo, Assay Code: SC3+, Evaluation Type: Evaluation B (Post-1980)
  mutagenic call: active; positive
Species/Cell Type: Nonhuman, Assay Type: Sister-chromatid exchange (SCE) in vivo, Assay Code: SC3T, Evaluation Type: Evaluation A (Pre-1980)
  mutagenic call: no conclusion
Species/Cell Type: Saccharomyces cerevisiae, Assay Type: Mitotic recombination or gene conversion, Assay Code: YEH-, Evaluation Type: Evaluation A (Pre-1980)
  mutagenic call: inactive; negative
Species/Cell Type: Salmonella typhimurium (one or more of the five standard strains: TA98, TA100, TA1535, TA1537, and TA1538), Assay Type: Histidine reverse gene mutation, Ames assay, Assay Code: SAL+*, Activation: With metabolic activation, Evaluation Type: Evaluation A (Pre-1980)
  mutagenic call: active; positive
Species/Cell Type: Salmonella typhimurium, Assay Type: Forward and reverse gene mutation, host-mediated assay, Assay Code: HMA-, Evaluation Type: Evaluation A (Pre-1980)
  mutagenic call: inactive; negative
Species/Cell Type: Syrian hamster embryo (SHE) cells, Assay Type: Cell transformation, clonal assay, Assay Code: CTC+, Evaluation Type: Evaluation A (Pre-1980)
  mutagenic call: active; positive

## CN(C)/C=N/c1nnc(/C=C/c2ccc([N+](=O)[O-])o2)o1
[1]
  call: active; positive
[2]
  mutagenic call: active; positive

## CN(CC(C)(C)C)N=O
Species/Cell Type: Salmonella typhimurium (one or more of the five standard strains: TA98, TA100, TA1535, TA1537, and TA1538), Assay Type: Histidine reverse gene mutation, Ames assay, Assay Code: SALT, Evaluation Type: Evaluation A (Pre-1980)
  mutagenic call: no conclusion

## [Cl][Cu][Cl]
Species/Cell Type: Bacillus subtilis (H17 vs M45), Assay Type: Rec-assay, spot test, DNA effects (bacterial DNA repair), Assay Code: REW-, Evaluation Type: Evaluation A (Pre-1980)
  mutagenic call: inactive; negative

## COS(C)(=O)=O
Species/Cell Type: Arabidopsis species, Assay Type: Gene mutation, Assay Code: ARM+, Evaluation Type: Evaluation A (Pre-1980)
  mutagenic call: active; positive
Species/Cell Type: Aspergillus nidulans, Assay Type: Reverse gene mutation, Assay Code: ASR+, Evaluation Type: Evaluation A (Pre-1980)
  mutagenic call: active; positive
Species/Cell Type: Chinese hamster lung (V79) cells, Assay Type: Forward gene mutation at the HPRT or ouabain locus, Assay Code: V79+, Evaluation Type: Evaluation A (Pre-1980)
  mutagenic call: active; positive
Species/Cell Type: Chinese hamster ovary (CHO) cells, Assay Type: Forward gene mutation at the HPRT locus, Assay Code: CHO+D, Dose Response: With dose response, Evaluation Type: Evaluation A (Pre-1980)
  mutagenic call: active; positive
Species/Cell Type: Drosophila melanogaster, Assay Type: Sex-linked recessive lethal gene mutation, Assay Code: SRL+, Evaluation Type: Evaluation A (Pre-1980)
  mutagenic call: active; positive
Species/Cell Type: Drosophila melanogaster, Sex: Male, Assay Type: Heritable translocation test, chromosome aberrations, Assay Code: DHT+, Evaluation Type: Evaluation A (Pre-1980)
  mutagenic call: active; positive
Species/Cell Type: Escherichia coli WP2, Assay Type: Tryptophan reverse gene mutation, Assay Code: WP2+D, Dose Response: With dose response, Evaluation Type: Evaluation A (Pre-1980)
  mutagenic call: active; positive
Species/Cell Type: Escherichia coli WP2 UVRA, Assay Type: Tryptophan reverse gene mutation, Assay Code: WPU+D, Dose Response: With dose response, Evaluation Type: Evaluation A (Pre-1980)
  mutagenic call: active; positive
Species/Cell Type: Escherichia coli polA (W3119 vs P3478), Assay Type: Rec-assay, DNA effects (bacterial DNA repair), Assay Code: RE1+, Evaluation Type: Evaluation A (Pre-1980)
  mutagenic call: active; positive
Species/Cell Type: Escherichia coli, Saccharomyces cerevisiae, Neurospora crassa, human lymphoid cells, Assay Type: Forward and reverse gene mutation, lethal mutation, mitotic recombination and gene conversion, chromosome effects, DNA e, Assay Code: HM9+, Evaluation Type: Evaluation A (Pre-1980)
  mutagenic call: active; positive
Species/Cell Type: F1 mouse, Sex: Male, Assay Type: Sperm morphology, Assay Code: SPFT, Evaluation Type: Evaluation A (Pre-1980)
  mutagenic call: no conclusion
Species/Cell Type: Glycine max (soybean), Assay Type: Gene mutation, Assay Code: GLM+, Evaluation Type: Evaluation A (Pre-1980)
  mutagenic call: active; positive
Species/Cell Type: Hordeum vulgare (barley), Assay Type: Chromosome aberrations, Assay Code: HOC+, Evaluation Type: Evaluation A (Pre-1980)
  mutagenic call: active; positive
Species/Cell Type: Hordeum vulgare (barley), Assay Type: Gene mutation, Assay Code: HOM+D, Dose Response: With dose response, Evaluation Type: Evaluation A (Pre-1980)
  mutagenic call: active; positive
Species/Cell Type: Human diploid fibroblasts, Assay Type: Unscheduled DNA synthesis (UDS) in vitro, DNA effects, Assay Code: UDH+D, Dose Response: With dose response, Evaluation Type: Evaluation A (Pre-1980)
  mutagenic call: active; positive
Species/Cell Type: Human lymphocytes or leukocytes, Assay Type: Chromosome aberrations in vivo, Assay Code: CY8+, Evaluation Type: Evaluation A (Pre-1980)
  mutagenic call: active; positive
Species/Cell Type: Human lymphocytes, Assay Type: Micronucleus test in vitro, chromosome aberrations, Assay Code: MN7+, Evaluation Type: Evaluation A (Pre-1980)
  mutagenic call: active; positive
Species/Cell Type: Human lymphocytes, Assay Type: Sister-chromatid exchange (SCE) in vitro, Assay Code: SCL+, Evaluation Type: Evaluation A (Pre-1980)
  mutagenic call: active; positive
Species/Cell Type: Human, Assay Type: Sister-chromatid exchange (SCE) in vitro, Assay Code: SC1+D, Dose Response: With dose response, Evaluation Type: Evaluation A (Pre-1980)
  mutagenic call: active; positive
Species/Cell Type: Mammalian germ cells, Sex: Male, Assay Type: Chromosome aberrations in vivo, Assay Code: CY9+, Evaluation Type: Evaluation A (Pre-1980)
  mutagenic call: active; positive
Species/Cell Type: Mammalian oocytes or early embryo, Assay Type: Chromosome aberrations in vivo, Assay Code: CYO+D, Dose Response: With dose response, Evaluation Type: Evaluation A (Pre-1980)
  mutagenic call: active; positive
Species/Cell Type: Mammalian polychromatic erythrocytes, Assay Type: Micronucleus test, chromosome aberrations, Assay Code: MNT+, Evaluation Type: Evaluation A (Pre-1980)
  mutagenic call: active; positive
Species/Cell Type: Mouse germ cells, Sex: Male, Assay Type: Unscheduled DNA synthesis (UDS) in vivo, DNA effects, Assay Code: UDT+, Evaluation Type: Evaluation A (Pre-1980)
  mutagenic call: active; positive
Species/Cell Type: Mouse lymphoma (L5178Y) cells, Assay Type: Forward gene mutation at the thymidine kinase (TK) locus, chromosome aberrations, Assay Code: L51+, Evaluation Type: Evaluation A (Pre-1980)
  mutagenic call: active; positive
Species/Cell Type: Mouse, Sex: Female, Assay Type: Spot test, gene mutation, Assay Code: MST+, Evaluation Type: Evaluation A (Pre-1980)
  mutagenic call: active; positive
Species/Cell Type: Mouse, Sex: Male, Assay Type: Heritable translocation test, chromosome aberrations, Assay Code: HTT+, Evaluation Type: Evaluation A (Pre-1980)
  mutagenic call: active; positive
Species/Cell Type: Mouse, Sex: Male, Assay Type: Specific locus test, gene mutation, Assay Code: SLT+, Evaluation Type: Evaluation A (Pre-1980)
  mutagenic call: active; positive
Species/Cell Type: Mouse, Sex: Male, Assay Type: Sperm morphology, Assay Code: SPI+, Evaluation Type: Evaluation A (Pre-1980)
  mutagenic call: active; positive
Species/Cell Type: Neurospora crassa, Assay Type: Forward gene mutation, Assay Code: NEF+, Evaluation Type: Evaluation A (Pre-1980)
  mutagenic call: active; positive
[1]
  call: active; positive
Species/Cell Type: Nonhuman, Assay Type: Sister-chromatid exchange (SCE) in vitro, Assay Code: SC2+D, Dose Response: With dose response, Evaluation Type: Evaluation A (Pre-1980)
  mutagenic call: active; positive
Species/Cell Type: Nonhuman, Assay Type: Sister-chromatid exchange (SCE) in vivo, Assay Code: SC3+D, Dose Response: With dose response, Evaluation Type: Evaluation A (Pre-1980)
  mutagenic call: active; positive
Species/Cell Type: Rabbit, Sex: Male, Assay Type: Sperm morphology, Assay Code: SPRT, Evaluation Type: Evaluation A (Pre-1980)
  mutagenic call: no conclusion
Species/Cell Type: Rat primary hepatocytes, Assay Type: Unscheduled DNA synthesis (UDS) in vitro, DNA effects, Assay Code: UDP+, Evaluation Type: Evaluation A (Pre-1980)
  mutagenic call: active; positive
Species/Cell Type: Rodents, Sex: Male, Assay Type: Dominant lethal test, Assay Code: DLT+D, Dose Response: With dose response, Evaluation Type: Evaluation A (Pre-1980)
  mutagenic call: active; positive
Species/Cell Type: Saccharomyces cerevisiae, Assay Type: Forward gene mutation, Assay Code: YEF+, Evaluation Type: Evaluation A (Pre-1980)
  mutagenic call: active; positive
Species/Cell Type: Saccharomyces cerevisiae, Assay Type: Mitotic recombination or gene conversion, Assay Code: YEC+, Evaluation Type: Evaluation A (Pre-1980)
  mutagenic call: active; positive
Species/Cell Type: Saccharomyces cerevisiae, Assay Type: Mitotic recombination or gene conversion, Assay Code: YEH+, Evaluation Type: Evaluation A (Pre-1980)
  mutagenic call: active; positive
Species/Cell Type: Saccharomyces cerevisiae, Assay Type: Reverse gene mutation, Assay Code: YER+, Evaluation Type: Evaluation A (Pre-1980)
  mutagenic call: active; positive
[2]
  mutagenic call: active; positive
Species/Cell Type: Salmonella typhimurium, Assay Type: Forward and reverse gene mutation, body fluid assay, Assay Code: BFU-, Evaluation Type: Evaluation A (Pre-1980)
  mutagenic call: inactive; negative
Species/Cell Type: Schizosaccharomyces pombe, Assay Type: Forward gene mutation, Assay Code: YEY+, Evaluation Type: Evaluation A (Pre-1980)
  mutagenic call: active; positive
Species/Cell Type: Schizosaccharomyces pombe, Assay Type: Reverse gene mutation, Assay Code: YEZ+, Evaluation Type: Evaluation A (Pre-1980)
  mutagenic call: active; positive
Species/Cell Type: Syrian hamster embryo (SA7/SHE) cells, Assay Type: Cell transformation, viral enhanced, Assay Code: CT7+, Evaluation Type: Evaluation A (Pre-1980)
  mutagenic call: active; positive
Species/Cell Type: Syrian hamster embryo (SHE) cells, Assay Type: Cell transformation, focus assay, Assay Code: CTF+, Evaluation Type: Evaluation A (Pre-1980)
  mutagenic call: active; positive
Species/Cell Type: Vicia faba, Assay Type: Chromosome aberrations, Assay Code: VIC+D, Dose Response: With dose response, Evaluation Type: Evaluation A (Pre-1980)
  mutagenic call: active; positive
